Each compound was assayed against T1, Thymidylate kinase (Mycobacterium tuberculosis, UniProt P9WKE1) (assay: Binding affinity towards mycobacterium tuberculosis thymidine monophosphate kinase; NI=No inhibition).
T1 sequence (P9WKE1 whole entry): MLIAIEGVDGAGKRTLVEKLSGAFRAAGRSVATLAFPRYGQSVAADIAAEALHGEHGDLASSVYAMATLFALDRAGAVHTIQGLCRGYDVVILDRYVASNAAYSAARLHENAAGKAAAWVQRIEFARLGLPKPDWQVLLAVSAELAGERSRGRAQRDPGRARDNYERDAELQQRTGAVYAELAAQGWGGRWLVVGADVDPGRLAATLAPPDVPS
With `CCOC(=O)/C=C/c1ccc(Cn2cc(C)c(=O)[nH]c2=O)cc1` the Ki was “Not Active”.
With `Cc1cn(Cc2ccc(CCC#N)cc2)c(=O)[nH]c1=O` the Ki was “Not Active”.
`Cc1cn(Cc2ccc(/C=C/C#N)cc2)c(=O)[nH]c1=O` was tested, and the Ki was “Not Active”.
With `Cc1cn(Cc2ccc(/C=C/C(=O)O)cc2)c(=O)[nH]c1=O` the Ki was “Not Active”.
In the case of `O=c1[nH]c(=O)n(Cc2ccccc2)cc1F`, the Ki is reported as “Not Active”.

What follows are compounds tested against T1, Thymidylate kinase (assay: Binding affinity towards mycobacterium tuberculosis thymidine monophosphate kinase).
In the case of `O=C(O)CCCc1ccc(Cn2cc(Br)c(=O)[nH]c2=O)cc1`, the Ki is reported as 12.3 µM.

Source: ChEMBL document CHEMBL1144358, “LEA3D: a computer-aided ligand design for structure-based drug design” (J Med Chem, 2005)
